These results are taken from patent US11364229B2, “Triple combination formulations for antiemetic therapy” (LEIUTIS PHARMACEUTICALS PVT, LTD, priority 2017, dated 2022).

Each structure is given as a SMILES string.

The series in a line: Effect of Meglumine on solubility (stressed at 60° C. for 24 hours, filtered). It is filed as physicochemical. Conditions: Arginine+Aspartic acid buffer system. The method, then:
The samples were stressed at 60° C. for 24 hours and were analyzed after filtration.

Consider `CNC[C@H](O)[C@@H](O)[C@H](O)[C@H](O)CO` [meglumine], for which the “effect on solubility of Aprepitant in the buffer system” value is listed as “improves the solubility of Aprepitant”.
